Assay: molar heat capacity at constant volume; xn = mol fraction of the nth substance listed
Settings: Fluid (supercritical or subcritical phases), isochoric heat capacity, x1 = 0.2607

N [ammonia] + O
Settings | molar heat capacity at constant volume [J/K/mol]
605.3 K, Mass density=329 kg/m3 | 82.4
605.39 K, Mass density=147.43 kg/m3 | 55.23
605.39 K, Mass density=329 kg/m3 | 83.73
605.47 K, Mass density=147.43 kg/m3 | 52.57
605.56 K, Mass density=329 kg/m3 | 84.16
605.64 K, Mass density=147.43 kg/m3 | 54.75
605.73 K, Mass density=147.43 kg/m3 | 55.07
605.82 K, Mass density=147.43 kg/m3 | 55.82
605.9 K, Mass density=147.43 kg/m3 | 54.48
606.33 K, Mass density=195.99 kg/m3 | 62.19
606.41 K, Mass density=195.99 kg/m3 | 62.19
606.41 K, Mass density=376.89 kg/m3 | 80.52
606.5 K, Mass density=195.99 kg/m3 | 62.44
606.58 K, Mass density=376.89 kg/m3 | 81.48
606.66 K, Mass density=195.99 kg/m3 | 62.01
606.67 K, Mass density=376.89 kg/m3 | 83.04
606.75 K, Mass density=195.99 kg/m3 | 62.31
606.76 K, Mass density=376.89 kg/m3 | 82.08
606.84 K, Mass density=195.99 kg/m3 | 62.12
606.84 K, Mass density=376.89 kg/m3 | 79.68
607.69 K, Mass density=342.18 kg/m3 | 76.36
607.78 K, Mass density=309.95 kg/m3 | 83.5
607.78 K, Mass density=342.18 kg/m3 | 81.1
607.86 K, Mass density=342.18 kg/m3 | 78.56
607.86 K, Mass density=376.89 kg/m3 | 79.35
607.87 K, Mass density=309.95 kg/m3 | 80.85
607.95 K, Mass density=309.95 kg/m3 | 86.43
607.95 K, Mass density=342.18 kg/m3 | 76.04
607.95 K, Mass density=376.89 kg/m3 | 80.25
608.04 K, Mass density=309.95 kg/m3 | 82.99
608.04 K, Mass density=376.89 kg/m3 | 78.87
608.12 K, Mass density=376.89 kg/m3 | 77.04
608.19 K, Mass density=160.07 kg/m3 | 52.92
608.21 K, Mass density=309.95 kg/m3 | 84.23
608.21 K, Mass density=376.89 kg/m3 | 75.92
608.29 K, Mass density=376.89 kg/m3 | 79.42
608.38 K, Mass density=376.89 kg/m3 | 76.18
608.4 K, Mass density=160.07 kg/m3 | 53.56
608.54 K, Mass density=160.07 kg/m3 | 51.75
608.63 K, Mass density=160.07 kg/m3 | 53.4
608.72 K, Mass density=160.07 kg/m3 | 52.1
608.81 K, Mass density=160.07 kg/m3 | 52.48
608.9 K, Mass density=160.07 kg/m3 | 52.35
609.06 K, Mass density=195.99 kg/m3 | 62.14
609.14 K, Mass density=195.99 kg/m3 | 62.71
609.23 K, Mass density=195.99 kg/m3 | 62.28
609.3 K, Mass density=195.99 kg/m3 | 63.31
609.4 K, Mass density=195.99 kg/m3 | 62.65
609.4 K, Mass density=320.33 kg/m3 | 87.43
609.48 K, Mass density=195.99 kg/m3 | 63.19
609.48 K, Mass density=294.44 kg/m3 | 91.17
609.48 K, Mass density=320.33 kg/m3 | 84.26
609.57 K, Mass density=294.44 kg/m3 | 89.27
609.57 K, Mass density=320.33 kg/m3 | 85.97
609.65 K, Mass density=294.44 kg/m3 | 87.71
609.65 K, Mass density=308.35 kg/m3 | 76.86
609.65 K, Mass density=320.33 kg/m3 | 80.69
609.74 K, Mass density=195.99 kg/m3 | 62.31
609.74 K, Mass density=294.44 kg/m3 | 89.93
609.74 K, Mass density=320.33 kg/m3 | 83.43
609.82 K, Mass density=294.44 kg/m3 | 89.02
609.82 K, Mass density=308.35 kg/m3 | 74.71
609.91 K, Mass density=308.35 kg/m3 | 78.67
609.99 K, Mass density=308.35 kg/m3 | 77.82
610.08 K, Mass density=308.35 kg/m3 | 76.77
610.17 K, Mass density=312.91 kg/m3 | 84.03
610.25 K, Mass density=312.91 kg/m3 | 83.02
610.33 K, Mass density=312.91 kg/m3 | 81.99
610.42 K, Mass density=311.19 kg/m3 | 84.41
610.42 K, Mass density=312.91 kg/m3 | 81.69
610.51 K, Mass density=311.19 kg/m3 | 81.05
610.51 K, Mass density=312.91 kg/m3 | 81.85
610.53 K, Mass density=311.19 kg/m3 | 82.17
610.59 K, Mass density=307.35 kg/m3 | 83.84
610.59 K, Mass density=312.91 kg/m3 | 80.77
610.68 K, Mass density=307.35 kg/m3 | 83.61
610.76 K, Mass density=307.35 kg/m3 | 85.1
610.77 K, Mass density=311.19 kg/m3 | 80
610.84 K, Mass density=311.19 kg/m3 | 82.42
610.85 K, Mass density=307.35 kg/m3 | 81.92
610.93 K, Mass density=307.35 kg/m3 | 80.84

From the NIST ThermoML archive (doi:10.1007/s10765-009-0602-6)
